Where a name gives a salt, the structure may show the parent alone.
Experiment: Inter-conversion study (competitive slurry) of hemi-fumarate Form A and Form B in IPA
Assay type: physicochemical
Details: RT and 50° C.
Method: Equal amount of the Form A of the hemi-fumarate salt and the Form B of the hemi-fumarate salt were added into IPA, and the suspensions were stirred at RT or 50° C. for 3 days, respectively. Residual solids were obtained and characterized. […] The overlay of the XRPD pattern from the inter-conversion study of the hemi-fumarate salt is depicted in FIG. 15.

## Cc1cc(NC(=O)[C@H](O)c2cc(F)cc(F)c2)ccc1-c1cnc(N)c(C(=O)NC(C)C)c1 [Form A of the hemi-fumarate salt, (R)-2-amino-5-(4-(2-(3,5-difluorophenyl)-2-hydroxyacetamido)-2-methylphenyl)-N-isopropylnicotinamide]
  Relative stability of hemi-fumarate Form A vs Form B: more stable form
